Results reported in patent publication US20240398823A1, “DUAL INHIBITOR OF HISTONE DEACETYLASE 6 AND HEAT SHOCK PROTEIN 90” (TAIPEI MEDICAL UNIVERSITY, priority 2021, published 2024).

Experiments:
[1] = biological target: T1, HDAC1 (Homo sapiens, UniProt Q13547); test: HDAC enzymes inhibition assay (Reaction Biology), HDAC1; format: biochemical; details: 10-dose, 3-fold dilution from 10 μM, single experiment
T1 construct: Reaction Biology Corporation (ran the assay as a service)

[2] = biological target: T2, HDAC3 (Homo sapiens, UniProt O15379); test: HDAC enzymes inhibition assay (Reaction Biology), HDAC3; format: biochemical; details: 10-dose, 3-fold dilution from 10 μM, single experiment
T2 construct: Reaction Biology Corporation (ran the assay as a service)

[3] = biological target: T3, HDAC6 (Homo sapiens, UniProt Q9UBN7); test: HDAC enzymes inhibition assay (Reaction Biology), HDAC6; format: biochemical; details: 10-dose, 3-fold dilution from 10 μM, single experiment
T3 construct: Reaction Biology Corporation (ran the assay as a service)
T3 sequence (Q9UBN7 1-1215): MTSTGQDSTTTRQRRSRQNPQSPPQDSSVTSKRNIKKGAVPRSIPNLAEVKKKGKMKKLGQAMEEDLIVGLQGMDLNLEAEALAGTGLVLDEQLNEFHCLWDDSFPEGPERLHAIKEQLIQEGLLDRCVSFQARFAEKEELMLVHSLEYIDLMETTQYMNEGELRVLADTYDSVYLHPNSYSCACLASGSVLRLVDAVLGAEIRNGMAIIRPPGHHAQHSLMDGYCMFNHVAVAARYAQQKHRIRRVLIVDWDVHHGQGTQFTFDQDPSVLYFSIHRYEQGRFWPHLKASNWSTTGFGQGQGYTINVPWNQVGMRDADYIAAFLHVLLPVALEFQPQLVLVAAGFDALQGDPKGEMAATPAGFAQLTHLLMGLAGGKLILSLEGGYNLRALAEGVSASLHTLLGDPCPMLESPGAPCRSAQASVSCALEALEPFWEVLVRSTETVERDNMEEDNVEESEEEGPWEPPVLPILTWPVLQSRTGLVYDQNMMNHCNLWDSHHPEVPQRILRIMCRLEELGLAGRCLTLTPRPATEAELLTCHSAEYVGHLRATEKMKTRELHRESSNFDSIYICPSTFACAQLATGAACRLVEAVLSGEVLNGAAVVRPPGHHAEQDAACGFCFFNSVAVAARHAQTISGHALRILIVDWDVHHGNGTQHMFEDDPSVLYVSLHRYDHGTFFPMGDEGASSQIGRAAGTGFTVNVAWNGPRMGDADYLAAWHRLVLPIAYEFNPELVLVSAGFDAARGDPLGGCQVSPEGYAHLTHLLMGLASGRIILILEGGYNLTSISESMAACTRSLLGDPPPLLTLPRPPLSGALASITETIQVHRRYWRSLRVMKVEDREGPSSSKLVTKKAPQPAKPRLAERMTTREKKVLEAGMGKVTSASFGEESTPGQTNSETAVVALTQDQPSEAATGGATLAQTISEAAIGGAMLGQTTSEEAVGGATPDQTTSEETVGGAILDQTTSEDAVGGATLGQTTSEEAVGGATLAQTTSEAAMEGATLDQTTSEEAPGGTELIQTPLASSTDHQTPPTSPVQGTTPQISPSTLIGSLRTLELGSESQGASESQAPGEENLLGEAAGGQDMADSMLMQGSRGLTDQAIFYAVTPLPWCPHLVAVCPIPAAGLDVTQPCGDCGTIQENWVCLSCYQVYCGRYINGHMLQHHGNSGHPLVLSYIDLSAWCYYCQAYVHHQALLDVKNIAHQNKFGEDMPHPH

[4] = tested on: human lung normal fibroblasts (IMR-90); test: MTT cytotoxicity to normal cells, IMR-90; format: cell-based; details: 48 hours, read-out: IC50, proliferation of IMR-90
Procedure: FIGS. 3A and 3B show the effects of Compound 75 on cytotoxicity to normal cell lines. Cells were treated with DMSO or different concentrations of Compound 75 for 48 hours and cell viability was assessed by MTT assay. […] Data are expressed as mean t S.D. N values greater than 3. * P<0.05; ** P<0.01; *** P<0.001, compared with the control group.
The effects on cell viability of the HSP90/HDAC6 dual inhibitors as described in Synthesis Examples (such as Compounds 63, 64, and 66 to 76) were evaluated. Cells were seeded in 96-well plates (5000 cells/well). The next day, the serially diluted drugs were added into the wells and incubated at 37° C. for 48 h. Cell viability was measured by the MTT assay and is expressed as percentages of surviving drug-treated cells relative to untreated control cells. The IC50 was calculated by non-linear regression analysis.
The cytotoxicity to normal cells of Compound 75 was evaluated.

[5] = tested on: colorectal cancer tumors (CT26); test: CT26 syngeneic tumor growth in immunocompetent Balb/c mice; format: in vivo, mouse; details: CT26 in Balb/c, 10, 25, 50 mg/kg i.v. every two days
Procedure: Tumor size in each mouse (FIG. 5B) and mean tumor size (FIG. 5C) were measured periodically. Bar, SEM. […] N values greater than 3.
The effects of the HSP90/HDAC6 dual inhibitors as described in Synthesis Examples (such as Compounds 63, 64, and 66 to 76) on syngeneic tumor treatment were evaluated. Female BALB/c mice were subcutaneously implanted with mouse colorectal cancer CT26 cells ([…] cells/mouse) in the left unilateral back. After tumor size reached 50 mm^3, mice were i.v. injected with […], STA9090 (Ganetespib), or anti-PD-1 antibody (clone RMP1-14) (4-8 mice per group). The progression of tumor sizes and body weights was measured twice per week. Tumor volume formula: V (mm^3)=(length×width×height)/2. Mice were sacrificed on day 25, and tumors and blood were collected for the analysis of immune cell populations.
After CT26 was injected subcutaneously into the back of immunocompetent mice (Balb/c), the tumors grew to 50 mm^3. Compound 75 was administered intravenously at 10 mg/kg, 25 mg/kg and 50 mg/kg every two days (FIG. 5A).

[6] = tested on: serum TGF-β and IL-2; test: Serum cytokines in CT26 tumor mice; format: in vivo, mouse; details: day 25, 10, 25, 50 mg/kg
Procedure: FIGS. 11A and 11B show effects of Compound 75 on peripheral blood cytokines. BALB/c mice with CT26 tumors were treated with 10, 25 and 50 mg/kg of Compound 75 every two days and sacrificed on day 25. Data are expressed as mean t S.D. N values greater than 3. *P<0.05; ** P<0.01; *** P<0.001, compared to the control group.
The reasons for the decrease of Treg in blood were further investigated.

[7] = tested on: CT26 tumor; test: CT26 tumor model, Compound 75 combined with CPT-11; format: in vivo, mouse; details: Compound 75 50 mg/kg plus CPT-11 20 mg/kg
Procedure: CT26 was injected subcutaneously into immunocompetent mice (BALB/c). The mice were treated with CPT-11 or combined Compound 75 with CPT-11 when the tumor grew to 50-100 mm^3. CPT-11 was given at 20 mg/kg for 7 consecutive days; compound 75 was given at 50 mg/kg every 2 days (8 doses in total, with suspension after day 14). […] Bar, S.E.M.
Whether Compound 75 could enhance the tumor suppressive effect of chemotherapeutic agents was evaluated. Control (vehicle), CPT-11 (20 mg/kg), or Compound 75 (50 mg/kg) was administered in combination with CPT-11 to mice and sacrificed them on day 25 as shown in FIG. 13A.

T1 sequence (Q13547 whole entry): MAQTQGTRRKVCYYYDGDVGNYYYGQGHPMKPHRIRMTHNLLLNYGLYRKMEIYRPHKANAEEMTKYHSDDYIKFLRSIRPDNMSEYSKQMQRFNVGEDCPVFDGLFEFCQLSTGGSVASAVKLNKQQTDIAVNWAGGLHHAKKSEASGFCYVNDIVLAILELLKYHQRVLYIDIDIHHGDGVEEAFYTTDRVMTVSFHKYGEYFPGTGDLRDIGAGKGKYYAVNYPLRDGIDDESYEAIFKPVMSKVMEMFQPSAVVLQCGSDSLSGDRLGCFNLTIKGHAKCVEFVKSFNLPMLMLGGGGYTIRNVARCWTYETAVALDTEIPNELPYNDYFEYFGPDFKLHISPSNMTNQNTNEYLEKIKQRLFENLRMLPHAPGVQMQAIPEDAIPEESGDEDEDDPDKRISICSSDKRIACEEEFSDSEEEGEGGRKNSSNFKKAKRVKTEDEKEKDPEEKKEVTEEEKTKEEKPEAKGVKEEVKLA
T2 sequence (O15379 whole entry): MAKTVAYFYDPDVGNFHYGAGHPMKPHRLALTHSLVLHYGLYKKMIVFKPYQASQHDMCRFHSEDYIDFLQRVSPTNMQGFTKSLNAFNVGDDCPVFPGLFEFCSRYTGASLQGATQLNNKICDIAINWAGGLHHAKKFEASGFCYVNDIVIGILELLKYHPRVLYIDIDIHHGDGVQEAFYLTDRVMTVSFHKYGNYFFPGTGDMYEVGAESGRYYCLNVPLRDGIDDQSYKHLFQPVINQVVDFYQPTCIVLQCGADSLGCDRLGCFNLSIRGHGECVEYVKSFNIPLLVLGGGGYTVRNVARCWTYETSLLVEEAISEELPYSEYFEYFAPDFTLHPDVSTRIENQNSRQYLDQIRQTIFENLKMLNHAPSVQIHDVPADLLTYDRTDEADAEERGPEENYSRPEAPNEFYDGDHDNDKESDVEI
T2 sequence (Q9Y618 395-489 partner limits assumed): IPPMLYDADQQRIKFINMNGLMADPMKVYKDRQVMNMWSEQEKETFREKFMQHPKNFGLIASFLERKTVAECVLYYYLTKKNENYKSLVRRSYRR

COc1ccc(N(Cc2ccc(C(=O)NO)cc2)C(=O)c2cc(C(C)C)c(O)cc2O)cc1 [Compound 75, 2,4-Dihydroxy-N-(4-hydroxycarbamoyl-benzyl)-5-isopropyl-N-(4-methoxy-phenyl)-benzamide]
IC50 [1]: 616 nM
IC50 [2]: 1370 nM
IC50 [3]: 4.56 nM
IC50 [4]: > 20000 nM
growth of colorectal cancer tumors in mice [5]: inhibit the growth of colorectal cancer tumors in mice
serum IL-2 [6]: had no effect
serum TGF-β expression [6]: significantly reduced
body weight, combined therapy versus CPT-11 alone [7]: no significant difference
tumor suppressive effect in combination with CPT-11 ([7]; day 25): significantly enhanced the effect of CPT-11 therapy
